Measurements taken from ChEMBL document CHEMBL1201862, “PubChem BioAssay data set” (2004).
Activity calls are given as the source filed them.

Tests used:
[1] = target: 72 kDa type IV collagenase (Homo sapiens, UniProt P08253); experiment: Dose Response validation of uHTS RPN11 inhibitor hits using a MMP-2 Fluorescence assay.; type: functional
[2] = target: 26S proteasome non-ATPase regulatory subunit 14 (Homo sapiens, UniProt O00487); experiment: inhibition of proteasome subunit RPN11 – biochemical, fluorescence polarization, uHTS hits, confirmation (AID 602368); type: functional
Sequence of 26S proteasome non-ATPase regulatory subunit 14 (O00487 whole entry): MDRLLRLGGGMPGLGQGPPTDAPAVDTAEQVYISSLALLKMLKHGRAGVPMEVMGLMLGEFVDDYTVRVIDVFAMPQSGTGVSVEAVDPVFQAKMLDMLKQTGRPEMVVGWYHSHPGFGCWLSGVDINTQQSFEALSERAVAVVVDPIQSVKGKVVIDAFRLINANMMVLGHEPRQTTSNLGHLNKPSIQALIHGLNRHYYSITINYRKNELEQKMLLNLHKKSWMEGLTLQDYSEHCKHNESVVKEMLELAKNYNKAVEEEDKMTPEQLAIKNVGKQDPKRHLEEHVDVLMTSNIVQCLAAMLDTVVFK

[3] = system: Streptococcus sp. 'group A'; experiment: Streptococcus pyogenes SK(-)GAS viability under kanamycin – luminescence, BacTiterGlo, confirmation, counter-screen for streptokinase expression inhibitor project, dose response (AID 1900); type: functional, organism-based
Prothrombin = Prothrombin (Bos taurus, UniProt P00735); experiment: thrombin protease inhibitors – biochemical, fluorescence polarization, uHTS hits, dose response (AID 602369); type: functional
Streptokinase A = target: T1, Streptokinase A (Streptococcus pyogenes serotype M1, UniProt P10520); experiment: viability-normalized secreted streptokinase activity reduction – plasminogen activation absorbance, OD405, dose response (AID 1914); type: functional, Streptococcus pyogenes M1 GAS;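 further: secreted streptokinase activity via plasminogen activation per viability signal from cell pellet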
T1 sequence (P10520 whole entry): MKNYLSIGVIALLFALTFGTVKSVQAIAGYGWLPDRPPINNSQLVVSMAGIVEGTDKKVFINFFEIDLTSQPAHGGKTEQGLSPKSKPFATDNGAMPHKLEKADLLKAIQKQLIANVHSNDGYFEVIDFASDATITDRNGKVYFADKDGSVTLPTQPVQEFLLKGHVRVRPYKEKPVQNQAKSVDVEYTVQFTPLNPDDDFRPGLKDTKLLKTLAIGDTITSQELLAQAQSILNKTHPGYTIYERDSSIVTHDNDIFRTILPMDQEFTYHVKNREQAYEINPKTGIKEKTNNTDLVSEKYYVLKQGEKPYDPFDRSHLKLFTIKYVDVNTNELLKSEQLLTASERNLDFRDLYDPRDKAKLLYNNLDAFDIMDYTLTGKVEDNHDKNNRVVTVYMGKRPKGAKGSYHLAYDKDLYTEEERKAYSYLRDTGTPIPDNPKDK

Streptococcus = experiment: GAS UMAA2166 growth inhibition – luminescence, BacTiterGlo, counter-screen for streptokinase expression inhibitor project, dose response (AID 1915); type: functional, organism-based;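 further: potency for reduction of bacterial viability or growth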
[4] = cAMP pathway inhibition in counterscreen cell line – TR-FRET cAMP detection, counter-screen for MC4R biased antagonist project, dose response (AID 602305); type: functional, cell-based;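 further: U2OS cells stimulated with forskolin near its EC80 as the cAMP inducer; potency is for inhibition of forskolin-stimulated cAMP signaling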
Melanocortin receptor 4 = Melanocortin receptor 4 (Homo sapiens, UniProt P32245); experiment: inhibitors of MC4R cAMP signaling – cell-based, TR-FRET, biased antagonists, dose response (AID 602298); type: functional;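 further: antagonist potency against agonist-stimulated cAMP production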
Sequence of Melanocortin receptor 4 (P32245 whole entry): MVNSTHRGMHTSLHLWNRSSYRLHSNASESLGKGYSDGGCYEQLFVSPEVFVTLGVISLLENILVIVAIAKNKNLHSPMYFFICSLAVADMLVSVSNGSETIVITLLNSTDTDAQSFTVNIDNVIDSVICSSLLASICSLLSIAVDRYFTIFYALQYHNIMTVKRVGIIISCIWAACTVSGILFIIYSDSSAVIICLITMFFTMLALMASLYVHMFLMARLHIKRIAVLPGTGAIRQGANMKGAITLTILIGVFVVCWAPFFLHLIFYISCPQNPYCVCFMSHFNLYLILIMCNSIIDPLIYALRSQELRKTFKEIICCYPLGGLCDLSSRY

[5] = target: T2, Neuropeptides B/W receptor type 1 (Homo sapiens, UniProt P48145); experiment: human NPBW1 receptor blockade, IC50 – cell-based, fluorescence, dose response, set 6, late-stage follow-up (AID 588583); type: functional
T2 sequence (P48145 whole entry): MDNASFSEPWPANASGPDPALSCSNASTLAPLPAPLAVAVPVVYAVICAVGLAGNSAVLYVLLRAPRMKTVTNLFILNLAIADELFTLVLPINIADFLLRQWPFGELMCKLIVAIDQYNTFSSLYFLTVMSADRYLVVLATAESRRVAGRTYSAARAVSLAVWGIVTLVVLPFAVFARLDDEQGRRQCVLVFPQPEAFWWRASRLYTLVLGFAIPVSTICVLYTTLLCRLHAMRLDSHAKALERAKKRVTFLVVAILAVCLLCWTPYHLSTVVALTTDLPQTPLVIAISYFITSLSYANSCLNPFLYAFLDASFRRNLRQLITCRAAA

[6] = target: Melanin-concentrating hormone receptor 1 (Homo sapiens, UniProt Q99705); experiment: Late-stage fluorescence-based counterscreen for antagonists of the G-protein coupled receptor 7 (GPR7): cell-based dose response assay to identify antagonists of the melanin-concentrating hormone receptor 1 (MCHR1) Set 6.; type: functional
Sequence of Melanin-concentrating hormone receptor 1 (Q99705 whole entry): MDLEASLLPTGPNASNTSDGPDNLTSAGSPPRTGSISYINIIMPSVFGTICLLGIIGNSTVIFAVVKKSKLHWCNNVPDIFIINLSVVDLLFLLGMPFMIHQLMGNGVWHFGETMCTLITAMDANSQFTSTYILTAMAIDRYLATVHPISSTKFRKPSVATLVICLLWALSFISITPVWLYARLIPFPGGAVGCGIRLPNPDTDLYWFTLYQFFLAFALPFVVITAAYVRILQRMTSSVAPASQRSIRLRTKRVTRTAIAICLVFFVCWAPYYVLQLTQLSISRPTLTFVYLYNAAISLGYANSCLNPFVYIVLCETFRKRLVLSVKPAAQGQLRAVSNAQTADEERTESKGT

Aurora kinase B = Aurora kinase B (Homo sapiens, UniProt Q96GD4); type: functional
Sequence of Aurora kinase B (Q96GD4 whole entry): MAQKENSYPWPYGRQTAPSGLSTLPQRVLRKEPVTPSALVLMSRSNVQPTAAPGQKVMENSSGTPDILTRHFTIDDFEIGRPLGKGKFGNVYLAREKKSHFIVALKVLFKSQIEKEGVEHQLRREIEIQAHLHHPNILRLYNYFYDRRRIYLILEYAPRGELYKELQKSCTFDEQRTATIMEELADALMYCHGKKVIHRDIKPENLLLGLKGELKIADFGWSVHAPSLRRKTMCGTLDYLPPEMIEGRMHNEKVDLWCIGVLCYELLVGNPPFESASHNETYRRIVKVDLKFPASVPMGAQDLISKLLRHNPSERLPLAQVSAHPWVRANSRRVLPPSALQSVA

Sequence of 72 kDa type IV collagenase (P08253 whole entry): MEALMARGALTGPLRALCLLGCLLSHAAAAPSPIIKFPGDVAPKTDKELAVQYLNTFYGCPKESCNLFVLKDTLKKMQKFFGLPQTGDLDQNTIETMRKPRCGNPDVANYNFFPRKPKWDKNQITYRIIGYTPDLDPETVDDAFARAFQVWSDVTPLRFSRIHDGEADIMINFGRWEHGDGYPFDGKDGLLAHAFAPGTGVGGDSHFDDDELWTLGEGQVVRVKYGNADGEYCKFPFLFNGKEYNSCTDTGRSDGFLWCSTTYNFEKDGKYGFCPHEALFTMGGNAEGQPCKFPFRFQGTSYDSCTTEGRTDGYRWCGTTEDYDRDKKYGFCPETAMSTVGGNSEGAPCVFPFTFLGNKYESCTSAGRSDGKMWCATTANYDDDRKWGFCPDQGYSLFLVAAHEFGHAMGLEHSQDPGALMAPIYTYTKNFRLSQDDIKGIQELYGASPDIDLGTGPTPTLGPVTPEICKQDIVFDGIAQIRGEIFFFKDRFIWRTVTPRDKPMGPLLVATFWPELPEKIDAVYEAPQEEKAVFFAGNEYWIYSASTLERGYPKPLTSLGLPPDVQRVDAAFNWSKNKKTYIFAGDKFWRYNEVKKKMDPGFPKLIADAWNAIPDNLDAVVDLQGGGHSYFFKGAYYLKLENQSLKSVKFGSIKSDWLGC

O=C1NC(=S)N(C2CCCCC2)C(=O)/C1=C/NNC(=O)c1ccccc1
IC50 [1]: > 100 µM (inactive) | IC50 [2]: 40.3 µM (active) | EC50 [3]: 0.519 µM (active) | IC50 (Prothrombin): 36.1 µM (active) | EC50 (Streptokinase A): > 150 µM (not active) | EC50 (Streptococcus): 8.22 µM (active)

CCOC(=O)c1cnc2ccc(OCC)cc2c1NCc1ccccc1
IC50 [4]: > 64.6 µM (inactive) | IC50 (Melanocortin receptor 4): > 64.6 µM (inactive)

N#CC(c1ccccn1)c1c(Br)cnn(Cc2cccc3ccccc23)c1=O (stereo unspecified)
IC50 [5]: 0.8 µM (active) | IC50 [6]: 0.8 µM (active)

Cc1cccc(Nc2nccc(Nc3ccccc3C(=O)O)n2)c1
Ki (Aurora kinase B): 0.00126 µM (active)
